{
  "source": "patent US8158809B2",
  "about": "(priority 2003, dated 2012)",
  "test_system": "HCT116",
  "assay": "Cell colony formation assay",
  "format": "cell-based",
  "conditions": "10 nM; 72 hours with drug; colonies counted after 7 days",
  "experimental": "This example provides directions for growing cells and testing compounds of the invention for their effect on the growth of the cells. All cells were purchased from DCTDC Tumor Repository, NCI, NIH.\nThe cells were incubated in a CO2 incubator at 37° C. for 5 hours for attachment to the bottom of Petri dishes. Drugs were made fresh in medium at ten times the final concentration, and then 0.3 ml of this stock solution was added to the 2.7 ml of medium in the dish. The cells were then incubated with drugs for 72 hours at 37° C. At the end of the incubation the drug-containing media were decanted, the dishes were rinsed with 4 ml of Hank's Balance Salt Solution (HBSS), 5 ml of fresh medium was added, and the dishes were returned to the incubator for colony formation. The cell colonies were counted using colony counter after incubation for 7 days for HCT116 cells and PC-3 cells and 8 days for VM46 cells, respectively. Cell survival (%) was calculated, as shown in Table I below for HCT 116 cells.",
  "data": [
    {"smiles": "COc1cc([C@@H]2c3cc4c(cc3[C@@H](O[C@@H]3O[C@@H]5CO[C@@H](C)O[C@H]5[C@H](O)[C@H]3O)[C@H]3COC(=O)[C@H]23)OCO4)cc(OC)c1O", "note": "[Etoposide, reference compound]", "values": [
      {"measurement": "In Vitro Efficacy: Survival (%) of HCT116", "value": 100, "unit": "%"}
    ]}
  ]
}
